The results in this text go back to ChEMBL document CHEMBL4145592, “Synthesis of Phosphatidylserine and Its Stereoisomers: Their Role in Activation of Blood Coagulation” (ACS Med Chem Lett, 2018).

In assay [1] the target is T1, Coagulation factor VII/tissue factor (Homo sapiens) (UniProt P08709+P13726). In words: Activation of full length recombinant human His-tagged tissue factor expressed in Escherichia coli BL21(DE3)/recombinant factor 7a (unknown origin) assessed as induction of coagulant factor-10a production using S-2765 as substrate measured for 2 mins in presence of phosphatidylcholine by colorimetric method relative to phosphatidylcholine alone.

Assay [2] has as its target T1, Coagulation factor VII/tissue factor (Homo sapiens). Put plainly: Activation of full length recombinant human His-tagged tissue factor expressed in Escherichia coli BL21(DE3)/recombinant factor 7a (unknown origin) assessed as induction of coagulant factor-10a production using S-2765 as substrate measured for 2 mins in presence of phosphatidylcholine by colorimetric method.

Calls of active or inactive are those of the source. No cut-off for these calls is given here.

For `CCCCCCCC/C=C\CCCCCCCC(=O)OC[C@@H](COP(=O)(O)OC[C@H](N)C(=O)O)OC(=O)CCCCCCC/C=C\CCCCCCCC`, the fold change (FC) in assay [1] was 2.
Turning to `CCCCCCCC/C=C\CCCCCCCC(=O)OC[C@@H](COP(=O)(O)OC[C@@H](N)C(=O)O)OC(=O)CCCCCCC/C=C\CCCCCCCC`, the outcome in assay [2] was inactive.
As to `CCCCCCCC/C=C\CCCCCCCC(=O)OC[C@H](COP(=O)(O)OC[C@H](N)C(=O)O)OC(=O)CCCCCCC/C=C\CCCCCCCC`, the fold change (FC) in assay [1] stood at 6.
Take `CCCCCCCC/C=C\CCCCCCCC(=O)OC[C@H](COP(=O)(O)OC[C@@H](N)C(=O)O)OC(=O)CCCCCCC/C=C\CCCCCCCC`: in assay [2], the result was Active.
